Broadly, the melting point is the temperature of the solid-liquid transition. `CN(C(=O)c1ccc(C(F)(F)F)cc1)c1ccc(Oc2ccc3c(c2)cc(C(=O)N2CCN(Cc4ccccn4)CC2)n3C)nc1.O=C(O)C(=O)O.O=C(O)C(=O)O` [Example 561, N-Methyl-N-{6-[1-methyl-2-(4-pyridin-2-ylmethylpiperazine-1-carbonyl)-1H-indol-5-yloxy]pyridin-3-yl}-4-trifluoromethyl-benzamide dioxalate] yielded a melting point of 114 to 117 °C.
`CC(C)CN1CCN(C(=O)c2cc3cc(Oc4ccc(N(C)C(=O)c5ccc(C(F)(F)F)cc5)cn4)ccc3n2C)CC1` [Example 562, N-{6-[2-(4-Isobutylpiperazine-1-carbonyl)-1-methyl-1H-indol-5-yl-oxy]pyridin-3-yl}-N-methyl-4-trifluoromethylbenzamide] came in with a melting point of 163 to 164 °C.
Turning to `Br.Br.Cn1c(C(=O)N2CCN(Cc3cccnc3)CC2)cc2cc(Oc3ccc(NC(=O)c4ccc(Cl)c(Cl)c4)cn3)ccc21` [Example 563, 3,4-Dichloro-N-{6-[1-methyl-2-(4-pyridin-3-ylmethylpiperazine-1-carbonyl)-1H-indol-5-yloxy]pyridin-3-yl}benzamide dihydrobromide], the melting point is 249 to 252 °C (dec.).
In the case of `Br.Br.Cn1c(C(=O)N2CCN(Cc3ccccn3)CC2)cc2cc(Oc3ccc(NC(=O)c4ccc(Cl)c(Cl)c4)cn3)ccc21` [Example 564, 3,4-Dichloro-N-{6-[1-methyl-2-(4-pyridin-2-ylmethylpiperazine-1-carbonyl)-1H-indol-5-yloxy]pyridin-3-yl}benzamide dihydrobromide], the melting point was 231 to 233 °C (dec.).
With `Br.Br.Cc1nc(Oc2ccc3c(c2)cc(C(=O)N2CCN(Cc4ccncc4)CC2)n3C)ccc1NC(=O)c1ccc(C(F)(F)F)cc1` [Example 565, N-{2-Methyl-6-[1-methyl-2-(4-pyridin-4-ylmethylpiperazine-1-carbonyl)-1H-indol-5-yloxy]pyridin-3-yl}-4-trifluoromethyl-benzamide dihydrobromide], the melting point is 223 to 225 °C (dec.).
Regarding `Cc1nc(Oc2ccc3c(c2)cc(C(=O)N2CCN(Cc4ccncc4)CC2)n3C)ccc1N(C)C(=O)c1ccc(C(F)(F)F)cc1.O=C(O)C(=O)O.O=C(O)C(=O)O` [Example 566, N-Methyl-N-{2-methyl-6-[1-methyl-2-(4-pyridin-4-ylmethyl-piperazine-1-carbonyl)-1H-indol-5-yloxy]pyridin-3-yl}-4-tri-fluoromethylbenzamide dioxalate], the melting point fell in the range of 117 to 120 °C.
In the case of `Br.CC(C)CN1CCN(C(=O)c2cc3cc(Oc4ccc(NC(=O)c5ccc(Cl)c(Cl)c5)cn4)ccc3n2C)CC1` [Example 567, 3,4-Dichloro-N-{6-[2-(4-isobutylpiperazine-1-carbonyl)-1-methyl-1H-indol-5-yloxy]pyridin-3-yl}benzamide hydrobromide], the melting point fell in the range of 251 to 254 °C.
`Cc1cc(CN2CCN(C(=O)c3cc4cc(Oc5ccc(N(C)C(=O)c6ccc(C(F)(F)F)cc6)cn5)ccc4n3C)CC2)no1.O=C(O)/C=C\C(=O)O` [Example 568, N-Methyl-N-(6-{1-methyl-2-[4-(5-methylisoxazol-3-ylmethyl)-piperazine-1-carbonyl]-1H-indol-5-yloxy}pyridin-3-yl)-4-tri-fluoromethylbenzamide maleate] registered a melting point of 112 to 115 °C.
As to `Br.Cc1cc(CN2CCN(C(=O)c3cc4cc(Oc5ccc(NC(=O)c6ccc(C(F)(F)F)cc6)cn5)ccc4n3C)CC2)no1` [Example 569, N-(6-{1-Methyl-2-[4-(5-methylisoxazol-3-ylmethyl)piperazine-1-carbonyl]-1H-indol-5-yloxy}pyridin-3-yl)-4-trifluoromethyl-benzamide hydrobromide], the melting point is 220 to 223 °C.

The record behind these values is US8551999B2, “Heterocyclic compound and pharmaceutical composition thereof” (Otsuka Pharmaceutical Co., Ltd., priority 2007, dated 2013).
